Laboratory results as given in patent US20160237067A1, “SUBSTITUTED PHENYLALANINE DERIVATIVES” (BAYER PHARMA AKTIENGESELLSCHAFT, priority 2013, published 2016).
Counter-ions that a name gives are not always drawn.

Tests used:
[1] = system: human and animal plasma; experiment: Determination of anticoagulatory activity: activated partial thromboplastin time (aPTT) in plasma; assay type: biochemical; details: C.K. Prest kit, 37° C., 3 minutes incubation, plasma species of Table B not stated
Method: The anticoagulatory activity of the test substances is determined in vitro in human and animal plasma (for example mouse, rat, rabbit, pig and dog plasma). To this end, blood is drawn off in a mixing ratio of sodium citrate/blood of 1:9 using a 0.11 molar sodium citrate solution as receiver. Immediately after the blood has been drawn off, it is mixed thoroughly and centrifuged at about 4000 g for 15 minutes. The supernatant is pipetted off.
The activated partial thromboplastin time (aPTT) is determined in the presence of varying concentrations of test substance or the corresponding solvent using a commercial test kit (C.K. Prest from Diagnostica Stago). The test compounds are incubated with the plasma and the PTT reagent (cephalin, kaolin) at 37° C. for 3 minutes. Coagulation is then started by addition of a 25 mM aqueous calcium chloride solution, and the time when coagulation occurs is determined. The concentration of test substance which brings about a 1.5-fold extension of the aPTT is determined Activity data from this test are listed in Table B below: […]

[2] = molecular target: T1, human factor XIa (Homo sapiens, UniProt P03951); experiment: Measurement of FXIa inhibition (fluorogenic peptide substrate Boc-Glu(OBzl)-Ala-Arg-AMC); assay type: biochemical; details: factor XIa from Kordia 0.45 nM; 15 min preincubation; 30 min at 22° C.
T1 construct: purchased Kordia
T1 sequence (P03951 388-625 limits assumed): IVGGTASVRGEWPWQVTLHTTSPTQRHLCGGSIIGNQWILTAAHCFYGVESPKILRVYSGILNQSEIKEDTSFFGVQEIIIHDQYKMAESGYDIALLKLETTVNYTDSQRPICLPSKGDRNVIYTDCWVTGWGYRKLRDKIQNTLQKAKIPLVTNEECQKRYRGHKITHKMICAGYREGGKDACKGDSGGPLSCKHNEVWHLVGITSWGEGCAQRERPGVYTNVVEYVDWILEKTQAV
T1 sequence (P03951 19-387 partner limits assumed): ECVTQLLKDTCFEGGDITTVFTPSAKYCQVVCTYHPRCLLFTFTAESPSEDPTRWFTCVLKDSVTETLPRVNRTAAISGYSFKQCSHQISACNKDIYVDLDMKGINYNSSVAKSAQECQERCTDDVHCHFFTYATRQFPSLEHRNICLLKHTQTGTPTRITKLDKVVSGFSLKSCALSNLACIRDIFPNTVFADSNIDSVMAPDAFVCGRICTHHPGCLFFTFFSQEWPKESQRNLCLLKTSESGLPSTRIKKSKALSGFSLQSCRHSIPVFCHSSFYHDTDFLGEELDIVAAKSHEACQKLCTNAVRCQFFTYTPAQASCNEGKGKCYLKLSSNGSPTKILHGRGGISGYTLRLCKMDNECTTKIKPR
Method: The factor XIa inhibition of the substances according to the invention is determined using a biochemical test system which utilizes the reaction of a peptidic factor XIa substrate to determine the enzymatic activity of human factor XIa. Here, factor XIa cleaves from the peptic factor XIa substrate the C-terminal aminomethylcoumarin (AMC), the fluorescence of which is measured. The determinations are carried out in microtitre plates.
Test substances are dissolved in dimethyl sulphoxide and serially diluted in dimethyl sulphoxide (3000 μM to 0.0078 μM; resulting final concentrations in the test: 50 μM to 0.00013 μM). In each case 1 μl of the diluted substance solutions is placed into the wells of white microtitre plates from Greiner (384 wells). Subsequently, the following are added successively: 20 μl of assay buffer (50 mmol/l Tris buffer pH 7.4; 100 mmol/l sodium chloride; 5 mmol/l calcium chloride; 0.1% bovine serum albumin) and 20 μl of factor XIa from Kordia (0.45 nM in assay buffer). After 15 min of incubation, the enzyme reaction is started by addition of 20 μl of the factor XIa substrate Boc-Glu(OBzl)-Ala-Arg-AMC dissolved in assay buffer (10 μM in assay buffer) from Bachem, the mixture is incubated at room temperature (22° C.) for 30 min and fluorescence is then measured (excitation: 360 nm, emission: 460 nm). The measured emissions of the test batches with test substance are compared to those of control batches without test substance (only dimethyl sulphoxide instead of test substance in dimethyl sulphoxide), and IC50 values are calculated from the concentration/activity relationships.

| SMILES | IC50 [2] | aPTT (concentration of test substance which brings about a 1.5-fold extension of the aPTT) [1] |
| --- | --- | --- |
| Cc1ccc(-c2ccc(C[C@H](NC(=O)[C@H]3CC[C@H](CN)CC3)C(=O)Nc3ccc(-c4nn[nH]n4)cc3)cc2)cc1NC(=O)C1CCNCC1 [Example 22, N-{4[(2S)-2-({[trans-4-(Aminomethyl)cyclohexyl]carbonyl}amino)-3-oxo-3-{[4-(2H-tetrazol-5-yl)phenyl]amino}propyl]-4-methylbiphenyl-3-yl}piperidine-4-carboxamide hydrochloride] | 25 nM | 0.34 µmol/L |
| NC[C@H]1CC[C@H](C(=O)N[C@@H](Cc2ccc(-c3cccc(C(=O)N4CCNCC4)c3F)cc2)C(=O)Nc2ccc(-c3nn[nH]n3)cc2)CC1 [Example 18, trans-4-(Aminomethyl)-N-[(2S)-3-[2′-fluoro-3′-(piperazin-1-ylcarbonyl)biphenyl-4-yl]-1-oxo-1-{[4-(2H-tetrazol-5-yl)phenyl]amino}propan-2-yl]cyclohexanecarboxamide hydrochloride] | 16 nM | 0.35 µmol/L |
| NC[C@H]1CC[C@H](C(=O)N[C@@H](Cc2ccc(-c3cccc(C(=O)NC4CCNCC4)c3)cc2)C(=O)Nc2ccc(-c3nn[nH]n3)cc2)CC1 [Example 13, 4′-[(2S)-2-({[trans-4-(Aminomethyl)cyclohexyl]carbonyl}amino)-3-oxo-3-{[4-(2H-tetrazol-5-yl)phenyl]amino}propyl]-N-(piperidin-4-yl)biphenyl-3-carboxamide hydrochloride] | 17 nM | 0.28 µmol/L |
| NC[C@H]1CC[C@H](C(=O)N[C@@H](Cc2ccc(-c3cccc(C(=O)N[C@@H]4CCNC4)c3F)cc2)C(=O)Nc2ccc(-c3nn[nH]n3)cc2)CC1 [Example 17, 4′-[(2S)-2-({[trans-4-(Aminomethyl)cyclohexyl]carbonyl}amino)-3-oxo-3-{[4-(2H-tetrazol-5-yl)phenyl]amino}propyl]-2-fluoro-N-[(3R)-pyrrolidin-3-yl]biphenyl-3-carboxamide hydrochloride] | 9.3 nM | 0.58 µmol/L |
| Cc1ccc(C#N)cc1-c1ccc(C[C@H](NC(=O)[C@H]2CC[C@H](CN)CC2)C(=O)Nc2ccc(-c3nn[nH]n3)cc2)cc1 [Example 21, trans-4-(Aminomethyl)-N-[(2S)-3-(5′-cyano-2′-methylbiphenyl-4-yl)-1-oxo-1-{[4-(2H-tetrazol-5-yl)phenyl]amino}propan-2-yl]cyclohexanecarboxamide hydrochloride] | 8.3 nM | 0.22 µmol/L |
| Cc1ccc(S(=O)(=O)N2CCCC2)cc1-c1ccc(C[C@H](NC(=O)[C@H]2CC[C@H](CN)CC2)C(=O)Nc2ccc3[nH]c(=O)[nH]c3c2)cc1 [Example 7, trans-4-(Aminomethyl)-N-{(2S)-3-[2′-methyl-5′-(pyrrolidin-1-ylsulphonyl)biphenyl-4-yl]-1-oxo-1-[(2-oxo-2,3-dihydro-1H-benzimidazol-5-yl)amino]propan-2-yl}cyclohexanecarboxamide hydrochloride] | 11 nM | 0.39 µmol/L |
| CCN(CC)CCNC(=O)c1cccc(-c2ccc(C[C@H](NC(=O)[C@H]3CC[C@H](CN)CC3)C(=O)Nc3ccc(-c4nn[nH]n4)cc3)cc2)c1 [Example 14, 4′-[(2S)-2-({[trans-4-(Aminomethyl)cyclohexyl]carbonyl}amino)-3-oxo-3-{[4-(2H-tetrazol-5-yl)phenyl]amino}propyl]-N-[2-(diethylamino)ethyl]biphenyl-3-carboxamide hydrochloride] | 15 nM | 0.35 µmol/L |
| Cc1ccc(C(=O)NC2CCNCC2)cc1-c1ccc(C[C@H](NC(=O)[C@H]2CC[C@H](CN)CC2)C(=O)Nc2ccc(-c3nn[nH]n3)cc2)cc1 [Example 9, hydrochloride] | 7.4 nM | 0.08 µmol/L |
| NC[C@H]1CC[C@H](C(=O)N[C@@H](Cc2ccc(-c3cccc(OCCN4CCOCC4)c3)cc2)C(=O)Nc2ccc(-c3nn[nH]n3)cc2)CC1 [Example 6, trans-4-(Aminomethyl)-N-[(2S)-3-{3′-[2-(morpholin-4-yl)ethoxy]biphenyl-4-yl}-1-oxo-1-{[4-(2H-tetrazol-5-yl)phenyl]amino}propan-2-yl]cyclohexanecarboxamide hydrochloride] | 14 nM | 0.54 µmol/L |

Stronger by IC50 [2], values ahead:

| IC50 [2] | SMILES | aPTT (concentration of test substance which brings about a 1.5-fold extension of the aPTT) [1] |
| --- | --- | --- |
| 6.4 nM | CCN(CC)CCCNC(=O)c1ccc(C)c(-c2ccc(C[C@H](NC(=O)[C@H]3CC[C@H](CN)CC3)C(=O)Nc3ccc(-c4nn[nH]n4)cc3)cc2)c1 [Example 19, 4′-[(2S)-2-({[trans-4-(Aminomethyl)cyclohexyl]carbonyl}amino)-3-oxo-3-{[4-(2H-tetrazol-5-yl)phenyl]amino}propyl]-N-[3-(diethylamino)propyl]-6-methylbiphenyl-3-carboxamide hydrochloride] | 0.26 µmol/L |
| 6.1 nM | Cc1ccc(S(=O)(=O)N2CCOCC2)cc1-c1ccc(C[C@H](NC(=O)[C@H]2CC[C@H](CN)CC2)C(=O)Nc2ccc3[nH]c(=O)[nH]c3c2)cc1 [Example 26, trans-4-(Aminomethyl)-N-{(2S)-3-[2′-methyl-5′-(morpholin-4-ylsulphonyl)biphenyl-4-yl]-1-oxo-1-[(2-oxo-2,3-dihydro-1H-benzimidazol-5-yl)amino]propan-2-yl}cyclohexanecarboxamide hydrochloride] | 0.18 µmol/L |
| 5.4 nM | Cc1ccc(C(=O)N2CCOCC2)cc1-c1ccc(C[C@H](NC(=O)[C@H]2CC[C@H](CN)CC2)C(=O)Nc2ccc(-c3nn[nH]n3)cc2)cc1 [Example 33, trans-4-(Aminomethyl)-N-[(2S)-3-[2′-methyl-5′-(morpholin-4-ylcarbonyl)biphenyl-4-yl]-1-oxo-1-{[4-(2H-tetrazol-5-yl)phenyl]amino}propan-2-yl]cyclohexanecarboxamide hydrochloride] | 0.18 µmol/L |
| 2.7 nM | NC[C@H]1CC[C@H](C(=O)N[C@@H](Cc2ccc(-c3cccc(C(=O)N4CCOCC4)c3)cc2)C(=O)Nc2ccc(-c3nn[nH]n3)cc2)CC1 [Example 20, trans-4-(Aminomethyl)-N-[(2S)-3-[3′-(morpholin-4-ylcarbonyl)biphenyl-4-yl]-1-oxo-1-{[4-(2H-tetrazol-5-yl)phenyl]amino}propan-2-yl]cyclohexanecarboxamide hydrochloride] | 0.39 µmol/L |
| 2 nM | COc1ccc(-c2ccc(C[C@H](NC(=O)[C@H]3CC[C@H](CN)CC3)C(=O)Nc3ccc(-c4nnn[nH]4)cc3)cc2)cc1S(=O)(=O)N1CCOCC1 [Example 24, trans-4-(Aminomethyl)-N-[(2S)-3-[4′-methoxy-3′-(morpholin-4-ylsulphonyl)biphenyl-4-yl]-1-oxo-1-{[4-(1H-tetrazol-5-yl)phenyl]amino}propan-2-yl]cyclohexanecarboxamide hydrochloride] | 0.09 µmol/L |
| 0.5 nM | Cc1ccc(S(=O)(=O)N(C)C)cc1-c1ccc(C[C@H](NC(=O)[C@H]2CC[C@H](CN)CC2)C(=O)Nc2ccc(-c3nnn[nH]3)cc2)cc1 [Example 1, trans-4-(Aminomethyl)-N-[(2S)-3-[5′-(dimethylsulphamoyl)-2′-methylbiphenyl-4-yl]-1-oxo-1-{[4-(1H-tetrazol-5-yl)phenyl]amino}propan-2-yl]cyclohexanecarboxamide hydrochloride] | 0.16 µmol/L |
| 0.1 nM | Cc1ccc(S(=O)(=O)N2CCOCC2)cc1-c1ccc(C[C@H](NC(=O)[C@H]2CC[C@H](CN)CC2)C(=O)Nc2ccc(-c3nnn[nH]3)cc2)cc1 [Example 2, trans-4-(Aminomethyl)-N-[(2S)-3-[2′-methyl-5′-(morpholin-4-ylsulphonyl)biphenyl-4-yl]-1-oxo-1-{[4-(1H-tetrazol-5-yl)phenyl]amino}propan-2-yl]cyclohexanecarboxamide hydrochloride] | 0.22 µmol/L |
